Experimental data: patent US9550989B2, “Rational design of microRNA-siRNA chimeras for multi-functional target suppression” (Washington University, priority 2013, dated 2017)

Experiments:
Type in all cases: cell-based, human
[1] = test system: HeLa cells; assay: Transwell migration assay; conditions: transwell migration; for promotion of cell motility as compared to the negative control: increase by %; for cell mobility on average as compared to the control: increased to % of control
Experimental: (A) Transwell migration assays to assess changes in cell motility. (B) MTS assays to assess changes in cell proliferation.
(§1) FIG. 7 depicts images and graphs showing functional characterization of aiR-9 on cell motility and cell death. […] One representative microscope image from each assay is presented here. (B) Impact of aiR-9 on cell death. TP53 deficiency renders HCT116 cells resistance to cisplatin-induced cell death. HCT116 cells and HCT116 p53^−/− cells were treated with cisplatin (50 μM) and cell death was determined as sub-G1 population by flow cytometry analysis after DNA PI staining. Furthermore, HCT116 cells were transfected with negative control RNA, aiR-9-2 or miR-9 individually followed by cisplatin treatment, and then analyzed by flow cytometry for cell death with PI staining.
Cultured cells were resuspended and washed with PBS buffer. Fifty thousand cells in 100 μL serum-free medium were added to the upper chamber of each Transwell (24-well insert with 8 um pore size from Costar). The lower chamber was filled with 600 μL medium containing 10% bovine serum. Cells were incubated for 6 h and cells on top of the membrane were removed with a cotton-tipped swab. Cells that had migrated through the membrane were fixed and stained with Hema-3 (Fisher Scientific) for counting.

[2] = test system: TP53; assay: Real-time RT-PCR of target mRNA; conditions: HeLa cells
Excerpt: FIG. 6 depicts sequences and a graph showing design and validation of aiRNA-9. (A) Sequences of three aiR-9 RNAs. […] The seed regions are underlined.

[3] = test system: HCT116 cells; assay: Flow cytometry of cisplatin-induced cell death (sub-G1, PI staining); conditions: cisplatin 50 μM
Experimental: as §1
HCT116 and HCT116 p53^−/− cells were cultured in DMEM with 10% FBS. Cisplatin, DNase-free RNase and Propidum Iodide (PI) were purchased from Sigma. After treatment with cisplatin (50 μM), all cells (both floating and attached) were collected, washed once with DPBS, and then fixed with 70% ethanol on ice for at least 30 minutes. Fixed cells were washed twice with DPBS and then stained with PI solution [PI (25 μg/ml) and DNase-free RNase (100 μg/ml) diluted in PBS] at room temperature for 1 hour avoiding light exposure. Data were acquired by BD Aris FACS and analyzed using Flowing Software 2 version 2.5.0 (Finland).

Substance	promotion of cell motility as compared to the negative control [1]	cell mobility on average as compared to the control [1]	suppression of TP53 expression [2]	cisplatin-induced cell death (sub-G1 cell population) [3]
miR-9: natural miRNA, SEQ ID NO:9 UCUUUGGUUAUCUAGCUGUAUGA (listed as RNA, chemistry not given here) [reference compound]	44%	144%		
aiR-9-2: aiRNA with miR-9 seed and TP53 siRNA homology, SEQ ID NO:11 UCUUUGGUUGGGGAGAGGAGC (listed as RNA, chemistry not given here)	57%	157%	effectively suppress	drastic suppression of cisplatin-induced cell death
